Values of other authors, collected in PMC11702666, “The anti-COVID-19 drug Paxlovid crosses biological barriers of the placenta and brain in rats” (npj Viruses, 2024).
Entries after “also recorded” stand apart in the source; their conditions may differ. Like-named read-outs stand apart in the source and are kept apart here.

Legend:
[1] = tested on: CYP3A; conditions: cited from earlier work; for AUC0 to infinity: midazolam 2 mg p.o.
[2] = PBPK model LeiCNS-PK3.0; recommended dosing regimen; cited from earlier work
[3] = cited from earlier work
[4] = male rats; cited from earlier work
[5] = oral; cited from earlier work

Cc1ncc2n1-c1ccc(Cl)cc1C(c1ccccc1F)=NC2 [midazolam]
increase of apparent CYP3A activity during pregnancy ([1]; for midazolam): 35-38%
AUC0 to infinity ([1]; postpartum): 17.9 ± 6.0 ng·h/mL
increase in CYP3A activity ([1]; pregnancy vs postpartum, from midazolam AUC): 1.88 fold
AUC0 to infinity ([1]; pregnancy, healthy pregnant women): 9.5 ± 4.3 ng·h/mL

CC(C)C(=O)OC[C@H]1O[C@@H](n2ccc(NO)nc2=O)[C@H](O)[C@@H]1O [molnupiravir]
predicted brain penetration / effective concentrations against SARS-CoV-2 [2]: unable to penetrate the BBB
placental barrier transfer ([3]; pregnant rats): traverse the placental barrier; also recorded: transfer to the placental barrier
blood–brain barrier transfer [4]: exhibit the potential to cross the blood–brain barrier

CCC(CC)COC(=O)[C@H](C)N[P@](=O)(OC[C@H]1O[C@@](C#N)(c2ccc3c(N)ncnn23)[C@H](O)[C@@H]1O)Oc1ccccc1 [remdesivir]
predicted brain penetration / effective concentrations against SARS-CoV-2 [2]: unable to penetrate the BBB
placental barrier transfer ([3]; experimental animal model): transfer to the placental barrier

CC(C)c1nc(CN(C)C(=O)N[C@H](C(=O)N[C@@H](Cc2ccccc2)C[C@H](O)[C@H](Cc2ccccc2)NC(=O)OCc2cncs2)C(C)C)cs1 [ritonavir]
bioavailability [5]: ~80%
